# pEC50: −log10 of the molar value.
# Columns and labels:
# [1] = system: Respiratory syncytial virus recombinant with luciferase (RSV-Luc5); assay: NHBE RSV-Luc5 384-well assay (EC50 RSVFLUC NHBE-384 v2), Example W; type: cell-based; conditions: human respiratory syncytial virus, 72 h, read-out: EC50 RSV FLUC NHBE 384 V2 (per Ex. W)
# Description: Example W: NHBE RSV-Luc5 384-Well Assay (EC50 RSVFLUC NHBE-384 v2)
# Normal Human Bronchial Epithelial (NHBE) cells were purchased from Lonza (Walkersville, MD Cat #CC2540) and maintained in BEGM Bronchial Epithelial Cell Growth Medium BulletKit (Lonza CC-3170).
# Cells were thawed, expanded, and were used for experiments at passage 2. Respiratory syncytial virus recombinant with luciferase (RSV-Luc5) (≥1×10^7 Infectious Units/mL (IU/mL) determined by TCID50) was purchased from Microbiologics (Saint Cloud, MN). Viral replication was determined in NHBE cells in the following manner.
# (§1) Compounds are prepared in 100% DMSO in 384-well polypropylene plates (Greiner, Monroe, NC, Cat #784201) with 8 compounds per plate in grouped replicates of 4 at 10 serially diluted concentrations (1:3). The serially diluted compounds were transferred to low dead volume Echo plates (Labcyte, Sunnyvale, CA, Cat #LP-0200).
# The test compounds were spotted to 384-well assay plates (Greiner, Monroe, NC, Cat #781091) at 200 nL per well using an Echo acoustic dispenser (Labcyte, Sunnyvale, CA). NHBE cells were harvested and suspended in BEGM Bronchial Epithelial Cell Growth Medium BulletKit and seeded to the pre-spotted assay plates at 5,000 cells per well in 30 μL. RSV-Luc5 virus was diluted in BEGM Bronchial Epithelial Cell Growth Medium BulletKit at 500,000 Infectious Units (IU) per mL and 10 μL per well was added to the assay plates containing cells and compounds, for an MOI of 1. The assay plates were incubated for 3 days at 37° C. and 5% CO2. At the end of incubation, One-Glo reagent (Promega, Madison, WI, Cat #E6120) was prepared. The assay plates and One-Glo reagent were equilibrated to room temperature for at least 15 minutes. 40 μL per well of One-Glo reagent was added and the plates were incubated at room temperature for 15 minutes before reading the luminescence signal on an EnVision multimode plate reader (Perkin Elmer, Waltham, MA). Remdesivir was used as positive control and DMSO was used as negative control. Values were normalized to the positive and negative controls (as 0% and 100% replication, respectively) and data was fitted using non-linear regression analysis by Gilead's dose response tool. The EC50 value for each compound was defined as the concentration reducing the viral replication by 50%.
# [2] = system: Respiratory syncytial virus recombinant with luciferase (RSV-Luc5); assay: HEp-2 RSV-Luc5 384-well assay (EC50 RSVFLUC Hep2-384 v2), Example V; type: cell-based; conditions: human respiratory syncytial virus, HEp-2, 72 h, read-out: EC50 RSV FLuc Hep-2 384 V2 (per Ex. V)
# Description: Example V: HEp-2 RSV-Luc5 384-Well Assay (EC50 RSVFLUC Hep2-384 v2)
# HEp-2 cell line was purchased from ATCC (Manassas, VA Cat #CCL-23) and maintained in Dulbecco's […] (DMEM) (Corning, New York, NY, Cat #15-018CM) supplemented with 10% fetal bovine serum (FBS) (Hyclone, Logan, UT, Cat #SH30071-03) and 1× Penicillin-Streptomycin-L-Glutamine (Corning, New York, NY, Cat #30-009-C1). Cells were passaged 2 times per week to maintain sub-confluent densities and were used for experiments at passage 5-20. Respiratory syncytial virus recombinant with luciferase (RSV-Luc5) (≥1×107 TCID50/ml) was purchased from Microbiologics (Saint Cloud, MN). Viral replication was determined in HEp-2 cells in the following manner.
# as §1
# The test compounds were spotted to 384-well assay plates (Greiner, Monroe, NC, Cat #781091) at 200 nL per well. HEp-2 cells were harvested and suspended in DMEM (supplemented with 10% FBS and 1× Penicillin-Streptomycin-L-Glutamine) and seeded to the pre-spotted assay plates at 4,000 cells per well in 30 μL. RSV-Luc5 viruses were diluted in DMEM (supplemented with 10% FBS and 1× Penicillin-Streptomycin-L-(Glutamine) at 200,000 Infectious Units (IU) per mL and 10 μL per well was added to the assay plates containing cells and compounds, for an MOI=0.5. The assay plates were incubated for 3 days at 37° C. and 5% CO2. At the end of incubation, One-Glo reagent (Promega, Madison, WI, Cat #E6120) was prepared. The assay plates and One-Glo reagent were equilibrated to room temperature for at least 15 minutes. 40 μL per well of One-Glo reagent was added and the plates were incubated at room temp for 15 minutes before reading the luminescence signal on an EnVision multimode plate reader (Perkin Elmer, Waltham, MA). Remdesivir was used as positive control and DMSO was used as negative control. Values were normalized to the positive and negative controls (as 0% and 100% replication, respectively) and data was fitted using non-linear regression analysis by Gilead's dose response tool. The EC50 value for each compound was then determined as the concentration reducing the viral replication by 50%.
SMILES,pEC50 [1],pEC50 [2]
"N#C[C@]1(COC(=O)OC2CCCC2)O[C@@H](c2ccc3c(N)ncnn23)[C@H](O)[C@@H]1O [Compound 1, ((2R,3S,4R,5S)-5-(4-aminopyrrolo[2,1-f][1,2,4]triazin-7-yl)-2-cyano-3,4-dihydroxytetrahydrofuran-2-yl)methyl cyclopentyl carbonate]",4.89,4.67
"CC(C)(C)COC(=O)OC[C@@]1(C#N)O[C@@H](c2ccc3c(N)ncnn23)[C@H](O)[C@@H]1O [Compound 2, ((2R,3S,4R,5S)-5-(4-aminopyrrolo[2,1-f][1,2,4]triazin-7-yl)-2-cyano-3,4-dihydroxytetrahydrofuran-2-yl)methyl neopentyl carbonate]",4.94,5.02
"CC[C@H](C)OC(=O)OC[C@@]1(C#N)O[C@@H](c2ccc3c(N)ncnn23)[C@H](O)[C@@H]1O [Compound 4, ((2R,3S,4R,5S)-5-(4-aminopyrrolo[2,1-f][1,2,4]triazin-7-yl)-2-cyano-3,4-dihydroxytetrahydrofuran-2-yl)methyl ((S)-sec-butyl) carbonate]",5.01,4.62
"N#C[C@]1(COC(=O)OCCc2ccccc2)O[C@@H](c2ccc3c(N)ncnn23)[C@H](O)[C@@H]1O [Compound 5, ((2R,3S,4R,5S)-5-(4-aminopyrrolo[2,1-f][1,2,4]triazin-7-yl)-2-cyano-3,4-dihydroxytetrahydrofuran-2-yl)methyl phenethyl carbonate]",4.90,4.75
"COC(=O)OC[C@@]1(C#N)O[C@@H](c2ccc3c(N)ncnn23)[C@H](O)[C@@H]1O [Compound 6, ((2R,3S,4R,5S)-5-(4-aminopyrrolo[2,1-f][1,2,4]triazin-7-yl)-2-cyano-3,4-dihydroxytetrahydrofuran-2-yl)methyl methyl carbonate]",4.44,4.75
"CC(C)CCOC(=O)OC[C@@]1(C#N)O[C@@H](c2ccc3c(N)ncnn23)[C@H](O)[C@@H]1O [Compound 7, ((2R,3S,4R,5S)-5-(4-aminopyrrolo[2,1-f][1,2,4]triazin-7-yl)-2-cyano-3,4-dihydroxytetrahydrofuran-2-yl)methyl isopentyl carbonate]",4.86,4.78
"CC(C)COC(=O)OC[C@@]1(C#N)O[C@@H](c2ccc3c(N)ncnn23)[C@H](O)[C@@H]1O [Compound 8, ((2R,3S,4R,5S)-5-(4-aminopyrrolo[2,1-f][1,2,4]triazin-7-yl)-2-cyano-3,4-dihydroxytetrahydrofuran-2-yl)methyl isobutyl carbonate]",4.90,4.94
"CCCOC(=O)OC[C@@]1(C#N)O[C@@H](c2ccc3c(N)ncnn23)[C@H](O)[C@@H]1O [Compound 9, ((2R,3S,4R,5S)-5-(4-aminopyrrolo[2,1-f][1,2,4]triazin-7-yl)-2-cyano-3,4-dihydroxytetrahydrofuran-2-yl)methyl propyl carbonate]",4.80,4.88
"CC[C@@H](C)OC(=O)OC[C@@]1(C#N)O[C@@H](c2ccc3c(N)ncnn23)[C@H](O)[C@@H]1O [Compound 10, ((2R,3S,4R,5S)-5-(4-aminopyrrolo[2,1-f][1,2,4]triazin-7-yl)-2-cyano-3,4-dihydroxytetrahydrofuran-2-yl)methyl ((R)-sec-butyl) carbonate]",4.94,4.61
"CC(C)OC(=O)OC[C@@]1(C#N)O[C@@H](c2ccc3c(N)ncnn23)[C@H](O)[C@@H]1O [Compound 11, ((2R,3S,4R,5S)-5-(4-aminopyrrolo[2,1-f][1,2,4]triazin-7-yl)-2-cyano-3,4-dihydroxytetrahydrofuran-2-yl)methyl isopropyl carbonate]",4.92,4.51
"N#C[C@]1(COC(=O)OC2CCOCC2)O[C@@H](c2ccc3c(N)ncnn23)[C@H](O)[C@@H]1O [Compound 12, ((2R,3S,4R,5S)-5-(4-aminopyrrolo[2,1-f][1,2,4]triazin-7-yl)-2-cyano-3,4-dihydroxytetrahydrofuran-2-yl)methyl (tetrahydro-2H-pyran-4-yl) carbonate]",5.05,< 4.30
"CC(C)(C)OC(=O)OC[C@@]1(C#N)O[C@@H](c2ccc3c(N)ncnn23)[C@H](O)[C@@H]1O [Compound 13, ((2R,3S,4R,5S)-5-(4-aminopyrrolo[2,1-f][1,2,4]triazin-7-yl)-2-cyano-3,4-dihydroxytetrahydrofuran-2-yl)methyl tert-butyl carbonate]",4.97,4.92
"CCC(CC)OC(=O)OC[C@@]1(C#N)O[C@@H](c2ccc3c(N)ncnn23)[C@H](O)[C@@H]1O [Compound 14, ((2R,3S,4R,5S)-5-(4-aminopyrrolo[2,1-f][1,2,4]triazin-7-yl)-2-cyano-3,4-dihydroxytetrahydrofuran-2-yl)methyl pentan-3-yl carbonate]",4.83,4.50
"CC(C)COC(=O)OC[C@@]1(C#N)O[C@@H](c2ccc3c(N)ncnn23)[C@@H]2OC(=O)O[C@@H]21 [Compound 15, ((3aS,4R,6S,6aS)-6-(4-aminopyrrolo[2,1-f][1,2,4]triazin-7-yl)-4-cyano-2-oxotetrahydrofuro[3,4-d][1,3]dioxol-4-yl)methyl isobutyl carbonate]",4.94,4.84
"CC(C)COC(=O)Nc1ncnn2c([C@@H]3O[C@](C#N)(CO)[C@@H](O)[C@H]3O)ccc12 [Compound 16, Isobutyl (7-((2S,3R,4S,5R)-5-cyano-3,4-dihydroxy-5-(hydroxymethyl)tetrahydrofuran-2-yl)pyrrolo[2,1-f][1,2,4]triazin-4-yl)carbamate]",4.30,4.30
"N#C[C@]1(COC(=O)OC2CCC2)O[C@@H](c2ccc3c(N)ncnn23)[C@H](O)[C@@H]1O [Compound 17, ((2R,3S,4R,5S)-5-(4-aminopyrrolo[2,1-f][1,2,4]triazin-7-yl)-2-cyano-3,4-dihydroxytetrahydrofuran-2-yl)methyl cyclobutyl carbonate]",5.22,4.60
"CCCCCCOC(=O)OC[C@@]1(C#N)O[C@@H](c2ccc3c(N)ncnn23)[C@H](O)[C@@H]1O [Compound 19, ((2R,3S,4R,5S)-5-(4-aminopyrrolo[2,1-f][1,2,4]triazin-7-yl)-2-cyano-3,4-dihydroxytetrahydrofuran-2-yl)methyl hexyl carbonate]",5.15,4.87
"CCCCCOC(=O)OC[C@@]1(C#N)O[C@@H](c2ccc3c(N)ncnn23)[C@H](O)[C@@H]1O [Compound 20, ((2R,3S,4R,5S)-5-(4-aminopyrrolo[2,1-f][1,2,4]triazin-7-yl)-2-cyano-3,4-dihydroxytetrahydrofuran-2-yl)methyl pentyl carbonate]",5.12,4.86

# From US20230382940A1, “ANTIVIRAL COMPOUNDS AND METHODS OF MAKING AND USING THE SAME” (Gilead Sciences, Inc., priority 2022, published 2023)
